Source: US20250303006A1, “BIOCOMPATIBLE ANTISEPTIC COMPOSITION CONTAINING 9-HYDROXYCALABAXANTHONE AND/OR RELATED XANTHONES” (UNIVERSITAT DE LES ILLES BALEARS, priority 2022, published 2025)

Assays:
S. aureus = type: cell-based
Description: S. aureus ATCC 29213 was grown from frozen stocks in Luria-Bertani (LB) broth (Scharlab), at 37° C. under aerobic conditions in an orbital shaker (180 rpm). After overnight incubation, 1 mL of bacterial suspensions were incubated with different concentrations of CHX (0.01, 0.005, 0.003, 0.001, 0.0001%) and HCX (0.003, 0.002, 0.001, 0.0002, 0.00002%) for 3 hours at 37° C. under aerobic conditions in an orbital shaker (180 rpm). Bacterial suspension without treatment served as negative control (C−). The optical density (OD) was measured at 600 nm at 0 h and 3 h to determine bacterial proliferation (PowerWave Ht). The bacterial growth rate (μ) was calculated during the exponential growth phase following the equation ln ODt−ln OD0=μ×(t−t0) (n=4). The live/Dead ratio of bacteria was determined using the LIVE/DEAD BacLight bacterial viability kit (Invitrogen), following the manufacturer's instructions. The assays were carried out in triplicate.
The bacteria S. aureus was cultured and treated with different commercial antiseptic gels and HA hydrogel with […] HCX. The gels were tested at a concentration of 5% (v/v), and the experiment was run like in experiment 7, section 7.1.
16.1. […]

[1] = test system: human gingival fibroblast cells; assay: LDH cytotoxicity in immortalized human gingival fibroblasts; type: cell-based
Description: Cells were seeded in 48-well plates at a density of 2×10^4 cells/well. When the cells reached confluence, they were treated with different concentrations of HCX, and cytotoxicity was determined.
48 hours after seeding the iHGF cells in 48-well plates, cell inflammation was induced by means of adding 1 μg/ml of P. gingivalis lipopolysaccharide (LPS) (InvivoGen, San Diego, CA, USA) and the cells were treated with different concentrations of HCX (0.00002, 0.0002, 0.002%) in a fibroblast medium with 50 μg/ml of ascorbic acid (Sigma-Aldrich, St. Louis, MO, USA) for 48 hours. Images of the cells were taken with a bright field inverted microscope (Nikon Eclipse TS100) before treatment and 24 hours and 48 hours after treatment.
To estimate the cytotoxicity of the different concentrations of HCX, the presence of lactate dehydrogenase (LDH) in the culture media 48 h after pro-inflammatory stimulation with LPS and treatment with HCX was used as the cell death index. Following the manufacturer's instructions (Cytotoxicity Detection kit, Roche Diagnostics, Mannheim, Germany), LDH activity was determined spectrophotometrically after a 30-minute incubation at room temperature (RT) of 50 μl of culture media and 50 μl of the reaction mixture, measuring nicotinamide adenine dinucleotide (NADH) oxidation at 490 nm in the presence of pyruvate. Results were presented in relation to LDH activity of the media of the cells seeded without treatment (negative control, 0% cell death) and in relation to cells treated with 1% Triton X-100 (positive control, 100% death) using the following equation: Cytotoxicity (%)=[(expected value−negative control)/(positive control−negative control)]×100.
Different hydrogel formulations with and without 0.05% of HCX (HA, GelMa, Alginate and HPMC) and commercial gel containing 0.2% chlorhexidine and unmodified HA (Periokin Hyaluronic 1%, Laboratorios Kin, Commercial HA 0.2% CHX) were used for studies with gingival fibroblasts and S. epidermidis. Cells and bacteria without hydrogels served as negative control (C−). Gels at a concentration of 5% (v/v) were used for cell and bacterial studies.
Immortalized human gingival fibroblasts were cultured like in experiment 1 of section 1.2. The cells were treated with different hydrogel formulations with and without 0.05% of HCX (HA, GelMa, Alginate and HPMC) and commercial gel containing 0.2% chlorhexidine and unmodified HA (Periokin Hyaluronic 1%, Laboratorios Kin, commercial HA 0.2% CHX) in a fibroblast medium for 24 hours (n=4). Cell cytotoxicity was measured, like in experiment 1 of section 1.4.
16.1. […]
Immortalized human gingival fibroblasts were cultured like in experiment 1 of section 1.2. […] Cell cytotoxicity was measured, like in experiment 1 of section 1.4.

CC(C)=CCc1c(O)cc(O)c2c(=O)c3cc4c(c(O)c3oc12)OC(C)(C)C=C4 [FXA, Formoxanthone A]
concentration with antibacterial effect without cytotoxicity (S. aureus; S. aureus 3 h together with LDH cytotoxicity in gingival fibroblasts 24 h): 0.001%

O=c1c2cc(O)c(O)cc2oc2cc(O)cc(O)c12 [NRT, norathryol, reference compound]
biocompatibility for the cells (LDH cytotoxicity) ([1]; all concentrations tested (0.4-77 μM), 24 h): biocompatible
antibacterial effect (S. aureus; all concentrations tested (0.4-77 μM), 3 h): none of them were antibacterial

COc1c(O)cc2oc3cc(O)c(CC=C(C)C)c(O)c3c(=O)c2c1CC=C(C)C [aMG, α-Mangostin]
toxicity to cells ([1]; 0.002% in solution): already toxic
